Here are results for 25 compounds from patent US9988377B2, “Small molecule inducers of GDNF as potential new therapeutics for neuropsychiatric disorders” (THE TRUSTEES OF COLUMBIA UNIVERSITY IN THE CITY OF NEW YORK, priority 2011, dated 2018).

Experiment [1] concerns GDNF release from C6 glioma cells. The experiment is described as follows: GDNF in-situ ELISA in C6 glioma cells. Type of experiment: cell-based. The conditions noted are these: C6 glioma, 48 h, 10 μM compound, 48-hour incubation, fold over control release, corrected for pre-treatment release, read-out: Fold-Increase of GDNF Concentration. As for the experimental part: The GDNF Emax Immunoassay System from Promega (Madison, Wis.) was used to determine small molecule induced GDNF release from C6 glioma cells (ATCC, Manassas, Va.) with the following protocol. A 96-well ELISA plate was sterilized with UV for 30 minutes. The plate was coated with 100 μl/well of the anti-GDNF monoclonal antibody solution in carbonate coating buffer prepared per the manufacturer's instructions, and incubated overnight at 4° C. The antibody coating buffer was removed from the plate, which was then blocked according to the instructions in the kit. The plate was then incubated with 200 μl/well complete growth medium ([…], 5% FBS, 1% penicillin/streptomycin) for 2×1 h at rt to remove residue of the blocking buffer. After these washes were complete, fresh culture media was added to the wells. C6 cells were seeded at a density of 11,000 cells/well, with a total volume of approximately 150 μl in each well. The plate was incubated at 37° C. in an atmosphere containing 5% CO2. After 24 hours, complete growth medium was replaced with low serum medium (98.5% DMEM, 0.5% FBS, 1% penicillin/streptomycin) and the plate was incubated overnight for cellular synchronization. On the following day, cells were treated with experimental compounds for the indicated time. We used 10 μM concentrations of the tested compounds during a 48-hour incubation. Simultaneously with initiation of treatment, cells were removed from pre-treatment control wells with 5×200 μL washes of TBST (to control for basal GDNF release before the treatment period), and low-serum medium was added to these wells. 6 hours prior to stopping treatment with experimental compounds, the GDNF standard was added to the plate per the manufacturer's instructions. To terminate the treatment, the plate was washed extensively with 200 μl/well TBST washing buffer 5 times, which removed the cells. GDNF release for each well was measured according to GDNF Emax Immunoassay system instructions, and a plate reader was used to measure absorbance at 450 nm. Total GDNF release is calculated from the standard curve using Microsoft Excel. The listed values in Table 1 are presented as fold-increase of release of GDNF over control release of GDNF, corrected for pre-treatment release by subtracting from all values the mean amount of GDNF released in pre-treatment control wells. Statistical significance was determined using the Student's t-test.

The test system of experiment [2] is GDNF release by C6 glioma cells. The experiment is described as follows: GDNF release by conventional ELISA in conditioned media of C6 glioma cells. Type of experiment: cell-based. The settings on record: 48 h, 10 μM compound, 0.1% DMSO vehicle, representative experiment; for fold induction at 10 µM: C6 glioma, read-out: GDNF Increase ± SEM (fold/vehicle control). The text has this:
Conventional ELISAs were used to determine compound-induced increases of GDNF concentration in conditioned media of C6 glioma cells, and have afforded increased sensitivity compared to in-situ ELISA in our hands. C6 cells were purchased from ATCC (Manassas, Va.) at passage 37 and were used between passages 41-46. This requirement for a narrow range of passages is based on an observed decrease in magnitude of GDNF release with age of the cell line, and is consistent with reported behavior of C6 cells. All incubations were conducted at 37° C. in a humidified atmosphere containing 5% CO2. GDNF release was measured for each compound in 3 independent experiments. Briefly, C6 cells were seeded into sterile 12-well culture plates (Falcon) at a density of 300,000 cells per well and were recovered for 24 h in 1mL complete growth medium (94% high glucose DMEM, 5% FBS, 1% penicillin/streptomycin). Wells were then washed with 1mL sterile DPBS and were incubated for an additional 24 h with 0.5 mL low-serum medium (98.5% high glucose DMEM, 0.5% FBS, 1% penicillin/streptomycin). On the following day, experimental compounds or DMSO vehicle control were added each to duplicate wells in an additional 0.5 mL of low-serum medium. The final concentration of each compound was 10 μM in 1mL low-serum medium containing 0.1% DMSO. Plates were incubated with compounds and vehicle control for 48 h. Conditioned media were then collected from each well and GDNF concentrations were measured in triplicate on 96-well ELISA plates using the GDNF Emax Immunoassay System from Promega (Madison, Wis.) according to the manufacturer's instructions. A Bio-Tek H1MF plate reader (Burlington, Vt.) was used to measure absorbance from the resulting colorimetric reaction. Total GDNF release for each compound was calculated from the standard curve using Microsoft Excel. Data are normalized to the vehicle control and are thus presented as fold increase of GDNF concentration in experimental wells over that of the vehicle control. Each reported compound afforded a statistically significant increase of GDNF release over the DMSO control in each of three independent experiments conducted on separate days unless otherwise noted. Statistical significance within each experiment was determined by ANOVA followed by Tukey's post-hoc analysis using GraphPad Prism. Because of the naturally high variability of GDNF release values between experiments, data presented herein are intra-assay means from a representative experiment ±intra-assay standard error of the mean (SEM) calculated from biological replicates. Cytotoxicity for each compound was below 20% as measured by LDH levels in conditioned media (Cytotox 96, Promega).
All results (Table 2) represent fold-increase of GDNF release by C6 glioma cells treated with the indicated compound for 48 hours, normalized to the vehicle control. Results are presented from a representative experiment and were determined to be statistically significant (ANOVA) compared to the vehicle control.
A general note: ELISA stands for enzyme-linked immunosorbent assay.

In the case of `C1=CC2CCC1CN2Cc1c[nH]c2ccccc12` (racemic) [Compound 18b, 2-[(1H-indol-3-yl)methyl]-2-azabicyclo[2.2.2]oct-5-ene], the fold induction at 10 µM in experiment [1] was 1.6 ± 0.1.
`CCC1CC2CCC1N(CCc1c[nH]c3ccc(F)cc13)C2` (racemic) [Compound 13b, endo-7-ethyl-2-[2-(5-fluoro-1H-indol-3-yl)ethyl]-2-azabicyclo [2.2.2]octane]: the fold induction at 10 µM in experiment [1] is 2.
Take `CCC1CC2C=CC1N(CCc1c[nH]c3ccc(F)cc13)C2` (racemic) [Compound 72, exo-7-ethyl-2-(2-(5-fluoro-1H-indol-3-yl)ethyl)-2-azabicyclo[2.2.2]oct-5-ene]: the fold induction at 10 µM in experiment [2] is 16.2 ± 0.41.
`CCC1CC2C=CC1N(CCc1c[nH]c3ccc(C(F)(F)F)cc13)C2` (racemic) [Compound 12f, endo-7-ethyl-2-[2-(5-trifluoromethyl-1H-indol-3-yl)ethyl]-2-azabicyclo[2.2.2]oct-5-ene]: the fold induction at 10 µM in experiment [1] stood at 2.
As for `CCCCC1CC2C=CC1N(CCc1c[nH]c3ccccc13)C2` (racemic) [Compound 84, exo-2-(2-(1H-indol-3-yl)ethyl)-7-butyl-2-azabicyclo[2.2.2]oct-5-ene], the “GDNF Increase ± SEM (fold/vehicle control)” value in experiment [2] came to 12.65 ± 0.66 fold/vehicle control.
In the case of `C1=CC2C(Cc3ccccc3)CC1CN2CCc1c[nH]c2ccccc12` (racemic) [Compound 76, endo-2-(2-(1H-indol-3-yl)ethyl)-7-benzyl-2-azabicyclo[2.2.2]oct-5-ene], the fold induction at 10 µM in experiment [2] is 12.8 ± 0.85.
Still for that read-out and setting: the result for `CCCC1CC2C=CC1N(CCc1c[nH]c3ccccc13)C2` (racemic) [Compound 75, endo-2-(2-(1H-indol-3-yl)ethyl)-7-propyl-2-azabicyclo [2.2.2]oct-5-ene] reads 14.8 ± 0.85.
Take `CCC1CC2C=CC1N(CCc1csc3ccccc13)C2` (racemic) [Compound 90, endo-2-(2-(benzo[b]thiophen-3-yl)ethyl)-7-ethyl-2-azabicyclo[2.2.2]oct-5-ene]: the “GDNF Increase ± SEM (fold/vehicle control)” value in experiment [2] is reported as 11.86 ± 0.01 fold/vehicle control.
On to `Fc1ccc2[nH]cc(CCN3CC4C=CC3C(Cc3ccccc3)C4)c2c1` (racemic) [Compound 85, exo-7-benzyl-2-(2-(5-fluoro-1H-indol-3-yl)ethyl)-2-azabicyclo[2.2.2]oct-5-ene], for which the fold induction at 10 µM in experiment [2] was 13.2 ± 2.03.
Take `C1=CC2C(COCc3ccccc3)CC1CN2CCc1c[nH]c2ccccc12` (racemic) [Compound 86, endo-2-(2-(1H-indol-3-yl)ethyl)-7-(benzyloxymethyl)-2-azabicyclo[2.2.2]oct-5-ene]: the fold induction at 10 µM in experiment [2] amounted to 13.8 ± 2.01.
Turning to `CCCC1CC2C=CC1N(CCc1c[nH]c3ccc(F)cc13)C2` (racemic) [Compound 78, endo-2-(2-(5-fluoro-1H-indol-3-yl)ethyl)-7-propyl-2-azabicyclo[2.2.2]oct-5-ene], the “GDNF Increase ± SEM (fold/vehicle control)” value in experiment [2] is listed as 14.39 ± 0.51 fold/vehicle control.
On to “6-ethyl-2-(2-(5-fluoro-1H-indol-3-yl)ethyl)-2-azabicyclo[2.2.2]oct-5-ene [Compound 91]”, for which the “GDNF Increase ± SEM (fold/vehicle control)” value in experiment [2] worked out at 13.61 ± 0.62 fold/vehicle control.
As to `CCC1CC2C=CC1N(CCc1c[nH]c3cccc(F)c13)C2` (racemic) [Compound 87, endo-7-ethyl-2-(2-(4-fluoro-1H-indol-3-yl)ethyl)-2-azabicyclo[2.2.2]oct-5-ene], the “GDNF Increase ± SEM (fold/vehicle control)” value in experiment [2] was 10.87 ± 0.84 fold/vehicle control.
Regarding `CCCC1CC2C=CC1N(CCc1c[nH]c3ccc(F)cc13)C2` (racemic) [Compound 79, exo-2-(2-(5-fluoro-1H-indol-3-yl)ethyl)-7-propyl-2-azabicyclo[2.2.2]oct-5-ene], the fold induction at 10 µM in experiment [2] was found to be 14.6 ± 0.21.
The same measure, in the same setting: the result for `CCC1CC2C=CC1N(CCc1c[nH]c3c(F)cccc13)C2` (racemic) [Compound 69, exo-7-ethyl-2-(2-(7-fluoro-1H-indol-3-yl)ethyl)-2-azabicyclo [2.2.2]oct-5-ene] reads 12.13 ± 0.01; that for `CCC1CC2C=CC1N(CCc1csc3ccccc13)C2` (racemic) [Compound 73, exo-2-(2-(benzo[b]thiophen-3-yl)ethyl)-7-ethyl-2-azabicyclo[2.2.2]oct-5-ene], 9.87 ± 0.22.
In the case of `C1=CC2C(Cc3ccccc3)CC1CN2CCc1c[nH]c2ccccc12` (racemic) [Compound 77, exo-2-(2-(1H-indol-3-yl)ethyl)-7-benzyl-2-azabicyclo[2.2.2]oct-5-ene], in experiment [2], the “GDNF Increase ± SEM (fold/vehicle control)” value is 13.22 ± 0.08 fold/vehicle control.
In the case of `C1=CC2C(Cc3cccnc3)CC1CN2CCc1c[nH]c2ccccc12` (racemic) [Compound 80, exo-2-(2-(1H-indol-3-yl)ethyl)-7-(pyridin-3-ylmethyl)-2-azabicyclo[2.2.2]oct-5-ene], the fold induction at 10 µM in experiment [2] amounted to 7.02 ± 1.31.
As to `CCC1CC2C=CC1N(CCc1c[nH]c3cccc(F)c13)C2` (racemic) [Compound 70, exo-7-ethyl-2-(2-(4-fluoro-1H-indol-3-yl)ethyl)-2-azabicyclo[2.2.2]oct-5-ene], in experiment [2], the fold induction at 10 µM came out at 15.8 ± 0.65.
`CCC1CC2C=CC1N(CCCc1c[nH]c3ccccc13)C2` (stereo not drawn) [Compound 81, exo-2-(3-(1H-indol-3-yl)propyl)-7-ethyl-2-azabicyclo[2.2.2]oct-5-ene]: the “GDNF Increase ± SEM (fold/vehicle control)” value in experiment [2] was determined as 12.55 ± 0.05 fold/vehicle control.
Take `CCC1CC2C=CC1N(CCc1c[nH]c3cc(F)ccc13)C2` (racemic) [Compound 71, exo-7-ethyl-2-(2-(6-fluoro-1H-indol-3-yl)ethyl)-2-azabicyclo[2.2.2]oct-5-ene]: the fold induction at 10 µM in experiment [2] came to 16.5 ± 0.3.
Still for that read-out and setting: the result for `CCCCC1CC2C=CC1N(CCc1c[nH]c3ccccc13)C2` (racemic) [Compound 83, endo-2-(2-(1H-indol-3-yl)ethyl)-7-butyl-2-azabicyclo[2.2.2]oct-5-ene] reads 12.8 ± 0.5.
In the case of `CCC1CC2C=CC1N(CCc1cn(S(=O)(=O)c3ccc(C)cc3)c3ccccc13)C2` (racemic) [Compound 82, exo-7-ethyl-2-(2-(1-tosyl-1H-indol-3-yl)ethyl)-2-azabicyclo[2.2.2]oct-5-ene], the fold induction at 10 µM in experiment [2] was 13.6 ± 1.41.
As to `CCC1CC2C=CC1N(CCc1c[nH]c3c(F)cccc13)C2` (racemic) [Compound 89, endo-7-ethyl-2-(2-(7-fluoro-1H-indol-3-yl)ethyl)-2-azabicyclo[2.2.2]oct-5-ene], the “GDNF Increase ± SEM (fold/vehicle control)” value in experiment [2] worked out at 14.71 ± 0.11 fold/vehicle control.
Take `CCCC1CC2C=CC1N(CCc1c[nH]c3ccccc13)C2` (stereo not drawn) [Compound 74, exo-2-(2-(1H-indol-3-yl)ethyl)-7-propyl-2-azabicyclo[2.2.2]oct-5-ene]: the fold induction at 10 µM in experiment [2] came out at 7.11 ± 1.17.
